In US5089479A, “Adhesion of Mycoplasma pneumoniae and Mycoplasma hominus to sulfatide” (priority 1988, dated 1992):
“Also recorded” adds a separate entry of the source.

What was measured:
[1] = molecular target: M. pneumoniae binding to sulfatide; test: Inhibition of M. pneumoniae binding to sulfatide adsorbed on plastic; parameters: species or system Mycoplasma pneumoniae strain M129; conditions: for inhibition of binding to sulfatide (in words): sulfatide adsorbed on plastic
Description: Virulent M. pneumoniae strain M129, passage 5-15, were grown and metabolically labelled with [^3 H]palmitic acid, 12-17 Ci/mole, as described by Chandler et al. in Infect. Immun. 37: 942, 1982. The organisms were passed four times through a 26 gauge needle and suspended to approximately 10^7 cpm/ml of degassed RPMI 1640 medium containing 1% bovine serum albumin and 25 mM HEPES, pH 7.3.
The binding of M. pneumoniae to purified glycolipids immobilized in microtiter plates was measured as described by Krivan et al. in Proc. Natl. Acad. Sci., op. cit. Purified glycolipids were serially diluted in 25 μl of methanol containing 0.1 μg each of the auxiliary lipids cholesterol and phosphatidylcholine. After the solutions were dried by evaporation, the wells were filled with TBS-BSA, emptied after one hour, rinsed with RPMI-BSA, and incubated with 25 μl of [^3 H]-M. pneumoniae, approximately 10^7 cpm/ml RPMI-BSA. After incubation for two hours at 37° C., unless otherwise stated, the wells were washed five times with saline and bound M. pneumoniae was quantified by scintillation counting in Aquasol. For inhibition studies, various polysaccharides were serially diluted in […] of [^3 H]-M. pneumoniae.
To obtain the results shown in FIG. 4, polysaccharides were serially diluted in 25 μl of RPMI-BSA in microtiter wells previously coated with 1 μg of purified sulfatide. Binding was determined after incubation of two hours at 37° C. with 25 μl of [^3 H]-M. pneumoniae with the indicated concentration of dextran ( .circle. ) or dextran sulfate.

[2] = system: M. pneumoniae adhesion to WiDr cells; test: Inhibition of M. pneumoniae adhesion to WiDr human colon adenocarcinoma cell monolayers; assay type: cell-based
Description: (§1) Adhesion of [^3 H]-M. pneumoniae to cells on glass covered slips was measured by a modification of a method previously described by Chandler et al., Infect. Immun., op. cit. WiDr human colon adenocarcinoma, ATCC CCL 218 was grown in Eagle's minimal essential medium with 10% fetal calf serum in a 5% CO2 atmosphere at 37° C. The cells were removed with trypsin and plated on 12 mm round glass coverslips in 24-well tissue culture plates and grown for three days. Control coverslips were preincubated in medium without cells. The coverslips were washed in serum-free medium, then incubated in RPMI-BSA for fifteen minutes. The medium was removed and labelled M. pneumoniae suspended in 0.5 ml of RPMI-BSA were added to each well. The plates were incubated on a rocking table for 60 minutes at 37° C. The coverslips were washed by dipping in saline six times, and the bound radioactive bacteria were determined by scintillation counting. For inhibition studies, the inhibitors were added to M. pneumoniae prior to adding the bacteria to the coverslips.
Because virulent strains of M. pneumoniae adhere to mammalian cells, monolayers of WiDr cells were used to determine if dextran sulfate inhibits adhesion of the organism. [^3 H] -labelled M. pneumoniae was incubated with WiDr cell monolayers attached to coverslips in triplicate with an without dextran sulfate, as shown in Table II. […] In each experiment, 10 μg/ml dextran sulfate inhibited more than 1 μg/ml, but 100 μg/ml dextran sulfate caused no further inhibition. Thus, maximal inhibition was obtained with approximately 10 μg/ml of dextran sulfate. Similar results were obtained with MRC5 lung fibroblasts where in three experiments a mean of 47% of M. pneumoniae adhesion was inhibited by dextran sulfate.
(§2) Adhesion of labelled M. pneumoniae to WiDr cells on glass cover slips was determined as described previously. For inhibition studies, dextran sulfate and 3'-sialyllactose were dissolved in RPMI-BSA and the pH was adjusted to 7.4 with NaOH. The inhibitors were added to wells containing washed cover slips with attached WiDr cells or blank cover slips preincubated in medium or tris-BSA. Labelled M. pneumoniae were added immediately and incubated with slow rocking for sixty minutes at 37° C. After the coverslips were washed by dipping six times in saline, bound M. pneumoniae were determined by scintillation counting in Aquasol. […] After washing to remove the unbound organisms, the bound mycoplasma were determined by scintillation counting. Binding to uncoated wells was 3% of the applied radioactivity.
Adhesion of [^3 H]-M. pneumoniae to WiDr cells growing on 13 mm glass cover slips was determined as described above. Inhibition by dextran sulfate or 3'-sialyllactose at the indicated concentrations was calculated relative to control binding determined in RPMI/BSA without inhibitors. The results are presented as percent inhibition (mean±S.D. n=4 with n=8 for determination of control binding without inhibitor).

[3] = system: M. pneumoniae binding to laminin; test: Inhibition of M. pneumoniae binding to laminin adsorbed on plastic; parameters: species or system Mycoplasma pneumoniae strain M129
Description: (§3) Glycoproteins dissolved in 0.01 M sodium phosphate buffer, pH 7.4, containing 150 mM NaCl, 1 mM CaCl2, and 0.01% NaN3 were adsorbed onto plastic polyvinylchloride […] microtiter plates by incubation for 16 hours at 4° C. The unbound proteins were removed, and the wells were filled with tris-BSA and incubated for 30 minutes at room temperature. The wells were rinsed with RPMI1640 containing 25 mM HEPES, pH 7.3, and 1% bovine serum albumin. M. pneumoniae strain M129 labelled with [^3 H]-palmitate were dispersed in RPMI-BSA by passing four times through a 26 gauge needle, and 50 μl of the suspension was applied to the wells. After incubation for 60 minutes at 37° C., the wells were washed five times with saline and the labelled M. pneumoniae bound to the proteins were quantified by scintillation counting in Aquasol.
For inhibition studies, sugars in 25 μl of RPMI-BSA were added to wells coated with 10 μg/ml laminin followed by 25 μl of [^3 H]-M. pneumoniae. Binding was determined to both laminin-coated and uncoated wells in triplicate at each inhibitor concentration and in the absence of inhibitor. In some experiments, the adsorbed proteins were pretreated with neuraminidase. After adsorption of the proteins and incubation in tris-BSA, the wells were rinsed three times with 50 mM sodium acetate, pH 5.5, containing 150 mM NaCl, 5 mM CaCl2, 1 mg/ml bovine serum albumin, and 1 mM phenylmethanesulfonyl fluoride. The wells were incubated with 0.05 units/ml neuraminidase in the same buffer or with buffer without enzyme overnight at 20° C. The wells were rinsed three times with tris-BSA, and M. pneumoniae binding was determined as described above.

[4] = system: M. pneumoniae adhesion to coverslips; test: Inhibition of nonspecific adhesion of M. pneumoniae to coverslips without cells; assay type: binding, Mycoplasma pneumoniae strain M129; conditions: for inhibition of non-specific adhesion to coverslips (in words): coverslips preincubated in medium containing fetal calf serum
Description: as §1, §2

M. pneumoniae = M. pneumoniae adhesion to immobilized glycoproteins adsorbed on plastic; assay type: binding, Mycoplasma pneumoniae strain M129; conditions: for M. pneumoniae adhesion to immobilized glycoprotein (in words): adsorbed on plastic; for Relative binding activity: relative to fetuin = 1.0, from amount for half maximal binding, mean of 2 or 3 experiments
Description: as §3, with “Aquasol. […]” for “Aquasol.”

[5] = system: erythrocyte adhesion to M. pneumoniae; conditions: relative to fetuin; Loomes et al.; cited from earlier work
[6] = system: M. pneumoniae adhesion to MRC5 lung fibroblasts; test: Inhibition of M. pneumoniae adhesion to MRC5 lung fibroblasts; assay type: cell-based, human; conditions: mean of three experiments
Description: as §1
Because virulent strains of M. pneumoniae adhere to mammalian cells, monolayers of WiDr cells were used to determine if dextran sulfate inhibits adhesion of the organism. [^3 H] -labelled M. pneumoniae was incubated with WiDr cell monolayers attached to coverslips in triplicate with an without dextran sulfate, as shown in Table II. […]

[7] = system: M. hominus binding to sulfatide; test: Inhibition of M. hominus binding to purified sulfatide; parameters: species or system Mycoplasma hominus
[8] = system: M. hominus adhesion to human colon adenocarcinoma cells; test: Inhibition of M. hominus adhesion to cultured human colon adenocarcinoma cells; assay type: cell-based
[9] = system: monoclonal antibody My-28; test: Binding of monoclonal antibody My-28 to immobilized proteins after neuraminidase; conditions: neuraminidase-treated, adsorbed on plastic
Description: Binding of monoclonal antibody My-28 to the immobilized proteins before or after digestion with neuraminidase was determined using a 1:1000 dilution of ascites fluid in tris-BSA. After incubation for two hours at room temperature, the wells were washed three times with tris-BSA. Bound antibody was detected using goat anti-mouse IgM labelled with ^125 I by the Iodogen method.

CC(=O)NC1C(O)CC(OC2C(O)C(CO)OC(OC3C(CO)OC(O)C(O)C3O)C2O)(C(=O)O)OC1C(O)C(O)CO (centres unmarked) [3'-sialyllactose]
IC50 ([1]; oligosaccharide concentrations as sialic acid, read-out: I.D.50, substrate sulfatide): > 5000 µM | inhibition of binding to sulfatide (in words) [1]: Neither laminin nor 3'-sialyllactose inhibits M. pneumoniae attachment to sulfatide; also recorded: does not inhibit binding to sulfatide | inhibition of adhesion to WiDr cells (in words) ([2]; WiDr cells): partially inhibit | inhibition of adhesion to WiDr cells (in words) ([2]; WiDr cells, listed as 3'-Sialyllactose): The inhibition is dose dependent | control adhesion remaining ([2]; WiDr, more than ten-fold higher than ID50 for binding to laminin, 60 min): 40% | inhibition of binding to laminin (in words) ([3]; laminin adsorbed on plastic): inhibited by 3'-sialyllactose at comparable concentrations; also recorded: inhibit attachment of M. pneumoniae to laminin | IC50 ([3]; oligosaccharide concentrations as sialic acid, read-out: I.D.50, substrate laminin): 300 µM | inhibition of non-specific adhesion to coverslips (in words) [4]: specifically inhibited | inhibition of nonspecific binding to coverslips (in words) ([4]; coverslips preincubated in tris-BSA): does not inhibit nonspecific binding

Human α1 -acid glycoprotein: glycoprotein
M. pneumoniae adhesion to immobilized glycoprotein (in words) (M. pneumoniae): neither protein binds M. pneumoniae well | M. pneumoniae adhesion to immobilized glycoprotein (in words) (M. pneumoniae; listed as alpha-1-acid glycoprotein): weakly active | Relative binding activity (M. pneumoniae): 0.03 | inhibition of erythrocyte adhesion to M. pneumoniae (in words) [5]: inhibit erythrocyte adhesion to M. pneumoniae better than fetuin

dextran sulfate
concentration inhibiting binding to sulfatide by 50% ([1]; 1 μg sulfatide, 37° C., 2 hours): 0.4 µg/mL | inhibition of binding to sulfatide at 1 μg/ml (in words) ([1]; 1 μg/ml): completely abolished binding | inhibition of binding to sulfatide (in words) [1]: potent inhibitor; also recorded: completely inhibits binding | inhibition of binding to sulfatide (in words) ([1]; listed as Dextran sulfate): inhibits M. pneumoniae binding to sulfatide | concentration giving maximal inhibition of adhesion ([2]; WiDr cells): approximately 10 μg/ml | inhibition of adhesion to WiDr cells (in words) ([2]; WiDr cells): partially inhibit; also recorded: only partially inhibited; also recorded: partially inhibits adhesion; also recorded: partial inhibition | inhibition of adhesion to WiDr cells (in words) ([2]; WiDr cells, listed as Dextran sulfate): inhibited adhesion in all three experiments | inhibition of M. pneumoniae adhesion [6]: 47% | I.D.50, substrate laminin ([3]; laminin adsorbed on plastic): > 200 µg/mL | inhibition of binding to laminin (in words) ([3]; laminin adsorbed on plastic): no effect | inhibition of binding to laminin (in words) ([3]; laminin adsorbed on plastic, listed as Dextran sulfate): does not inhibit attachment on laminin | inhibition of non-specific adhesion to coverslips (in words) [4]: not by dextran sulfate | inhibition of M. hominus binding to sulfatide (in words) [7]: completely inhibits binding | inhibition of M. hominus adhesion (in words) [8]: partially inhibits adhesion

B1: Human type MM glycophorin: glycoprotein (protein, UniProt P02724 20-150, looked up)
Glycophorin-A: LSTTEVAMHTSTSSSVTKSYISSQTNDTHKRDTYAATPRAHEVSEISVRTVYPPEEETGERVQLAHHFSEPEITLIIFGVMAGVIGTILLISYGIRRLIKKSPSDVKPLPSPDTDVPLSSVEIENPETSDQ
modifications: MM blood type
notes: glycoprotein
M. pneumoniae adhesion to immobilized glycoprotein (in words) (M. pneumoniae; listed as Glycophorin): weakly active | M. pneumoniae adhesion to immobilized glycoprotein (in words) (M. pneumoniae; listed as glycophorin): neither protein binds M. pneumoniae well | Relative binding activity (M. pneumoniae): 0.06 | My-28 antibody binding after neuraminidase digestion (in words) [9]: about ten-fold less | inhibition of erythrocyte adhesion to M. pneumoniae (in words) [5]: inhibit erythrocyte adhesion to M. pneumoniae better than fetuin
